# Laboratory results reported in US6551583B2, “Antibiofouling method and apparatus for optical sensors” (Airak, Inc,, priority 2000, dated 2003).
# Assay: effectiveness of biocides for optrode protection against biofouling
# Conditions: ppb concentrations
structure (smiles),measurement,value
N#Cc1c(Cl)c(Cl)c(Cl)c(C#N)c1Cl [chlorothalonil],biocide effectiveness (optrode protection),effective even at ppb concentrations
